The values that follow come from patent US20230407243A1, “GENETIC PLATFORM TO INVESTIGATE THE FUNCTIONS OF BACTERIAL DRUG EFFLUX PUMPS” (priority 2022, published 2023).

For orientation: MIC means the lowest concentration that inhibits growth of the organism.

Like-named read-outs stand apart in the source and are kept apart here.

What all share (assay type): cell-based, Escherichia coli
In one experiment the test system is K-12 (empty pCA24N). Put plainly: MIC of strains harboring ASKA plasmids. Particulars: 0.1 mM IPTG; for MIC: K-12 empty pCA24N; for MIC, K-12 (empty pCA24N), Chlor +: 25 μg/mL chloramphenicol selection; for MIC, K-12 (empty pCA24N), Chlor −: no plasmid selection.
The next experiment concerns EKO-35 wcaC (pCA24N). Put plainly: MIC of strains harboring ASKA plasmids. Particulars: 0.1 mM IPTG; for MIC: EKO-35 wcaC; for MIC, EKO-35 wcaC (pCA24N), Chlor +: 4 μg/mL chloramphenicol selection; for MIC, EKO-35 wcaC (pCA24N), Chlor −: no plasmid selection.
A further experiment relates to EKO-35 acrBD408A. In outline:
(§1)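 MHB II, CLSI microdilution checkerboard, colony-resuspension inoculum, solvent controls per plate. MIC = no growth at OD600. FICI summed from FIC of PAβN/NMP and antibiotic; <0.5 synergistic, >2.0 antagonistic.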

For another experiment, the system named is EKO-35. In outline: as §1
A further experiment has as its system wild-type E. coli K-12. An outline of the steps: as §1
In a further experiment the test system is ΔtolC-Pore. An outline of the steps:
as §1

For a further experiment, the system named is ΔtolC. An outline of the steps:
as §1

Experiment [1] deals with EKO-35 porinated strain expressing acrB. Put plainly: Checkerboard synergy (FICI), porinated strain. An outline of the steps:
as §1

For experiment [2], the system named is EKO-35-Pore acrBD408A (functionally inactive AcrB variant). Put plainly: Checkerboard synergy (FICI), porinated strain. In outline:
as §1

A further experiment relates to EKO-35-Pore. Put plainly: Checkerboard synergy (FICI), porinated strain. An outline of the steps: as §1
A further experiment deals with wild-type K-12-Pore. Put plainly: Checkerboard synergy (FICI), porinated strain. Particulars: strain K-12 Pore. In outline:
as §1

Experiment [3] relates to EKO-35 strains with integrated RND tripartite efflux pumps (AcrB, AcrEF, AcrD, and MdtEF) with pGDP2:emrE or empty pGDP-2. Put plainly: Efflux pump interplay MIC profiling (pGDP2:emrE). Particulars: Pore −.
[4] abbreviates: Escherichia coli, Chlor −, read-out: MIC.
Setting [5] is: strain EKO-35 acrBD408A, NMP + antibiotic.
The mark [6] stands for this setting: strain EKO-35, NMP + antibiotic.
Setting [7] is: strain ΔtolC Pore, NMP + antibiotic.
Where [8] appears, read: strain EKO-35 acrB Pore, NMP + antibiotic.
The mark [9] stands for this setting: strain EKO-35 acrBD408A Pore, NMP + antibiotic.
Setting [10] is: strain EKO-35 Pore, NMP + antibiotic.

Take benzalkonium chloride: the MIC in the experiment on K-12 (empty pCA24N) (Chlor + (25 μg/mL chloramphenicol)) turned out to be 25 µg/mL; in the experiment with K-12 (empty pCA24N) (Chlor −) it was 25 µg/mL; in the experiment with EKO-35 wcaC (pCA24N) (Chlor + (4 μg/mL)) it was 0.391 µg/mL; in the experiment on EKO-35 wcaC (pCA24N) (Chlor −) it was 0.781 µg/mL.
On to `O=C(Nc1ccccc1C(=O)Nc1nnc(C(F)(F)F)s1)c1ccccc1Cl` [compound 19], for which, in the experiment on K-12 (empty pCA24N), the “MIC, K-12 (empty pCA24N), Chlor +” value is on record as over 5 μg/mL and the “MIC, K-12 (empty pCA24N), Chlor −” value is given as over 5 μg/mL. In addition, in the experiment with EKO-35 wcaC (pCA24N), the “MIC, EKO-35 wcaC (pCA24N), Chlor +” value is recorded as over 5 μg/mL and the “MIC, EKO-35 wcaC (pCA24N), Chlor −” value is over 5 μg/mL.
On to `COc1cc(Cc2cnc(N)nc2N)cc(OC)c1OC` [trimethoprim], for which the MIC with K-12 (empty pCA24N) (Escherichia coli, Chlor + (25 μg/mL chloramphenicol), read-out: MIC) turned out to be 0.781 µg/mL; in the experiment on K-12 (empty pCA24N) (setting [4]) it was 0.781 µg/mL; in the experiment on EKO-35 wcaC (pCA24N) (Chlor + (4 μg/mL)), 0.781 µg/mL; in the experiment on EKO-35 wcaC (pCA24N) (setting [4]), 0.781 µg/mL.
On to `N#Cc1ccc(-c2c(NC(=O)C(Cl)Cl)oc(-c3cccs3)c2C#N)cc1` [compound 2], for which, in the experiment on K-12 (empty pCA24N), the “MIC, K-12 (empty pCA24N), Chlor +” value is over 5 μg/mL and the “MIC, K-12 (empty pCA24N), Chlor −” value is reported as over 5 μg/mL. Also, in the experiment with EKO-35 wcaC (pCA24N), the “MIC, EKO-35 wcaC (pCA24N), Chlor +” value is recorded as over 5 μg/mL and the “MIC, EKO-35 wcaC (pCA24N), Chlor −” value was over 5 μg/mL.
Regarding `CC[n+]1c(-c2ccccc2)c2cc(N)ccc2c2ccc(N)cc21` [ethidium bromide], the FICI in the experiment on EKO-35 acrBD408A (EKO-35 acrBD408A, NMP + antibiotic) stood at 0.750; in the experiment on EKO-35 acrBD408A (setting [5]), 0.750; in the experiment with EKO-35 (EKO-35, NMP + antibiotic) it was 2.000; in the experiment on EKO-35 (setting [6]) it was 2.000; in the experiment with wild-type E. coli K-12 (K-12, NMP + antibiotic), 0.375; in the experiment with wild-type E. coli K-12 (strain K-12, NMP + antibiotic), 0.375. Besides, the FICI in the experiment on ΔtolC-Pore (setting [7]) worked out at 0.500; with ΔtolC-Pore (ΔtolC Pore, NMP + antibiotic) it was 0.500; in the experiment on ΔtolC (strain ΔtolC, NMP + antibiotic) it was 0.281; with ΔtolC (ΔtolC, NMP + antibiotic), 0.281; in experiment [1] (EKO-35 acrB Pore, NMP + antibiotic), 0.191; in [1] (setting [8]), 0.191. Moreover, the FICI in experiment [2] (EKO-35 acrBD408A Pore, NMP + antibiotic) is 1.000; in experiment [2] (setting [9]) it was 1.000; with EKO-35-Pore (EKO-35 Pore, NMP + antibiotic), 0.508; with EKO-35-Pore (setting [10]), 0.508. In addition, the Effect entry is listed as “Additive (additive (FICI >0.5-1.0))” in the experiment on EKO-35 acrBD408A (setting [5]); “— (indifferent (FICI >1.0))” in the experiment on EKO-35 (setting [6]); “Synergistic (Synergy (FICI ≤0.5))” with wild-type E. coli K-12 (strain K-12, NMP + antibiotic); “Additive (additive (FICI >0.5-1.0))” in the experiment on ΔtolC-Pore (setting [7]); “Synergistic (Synergy (FICI ≤0.5))” in the experiment with ΔtolC (strain ΔtolC, NMP + antibiotic); “Synergistic (Synergy (FICI ≤0.5))” in experiment [1] (setting [8]). Also, the Effect result in [2] (setting [9]) was “— (indifferent (FICI >1.0))”; with EKO-35-Pore (setting [10]), “Additive (additive (FICI >0.5-1.0))”; in the experiment on wild-type K-12-Pore (NMP + antibiotic) it was “Synergistic (Synergy (FICI ≤0.5))”. Further, the “MICb Alone” value came out at 0.488 µg/mL in the experiment on EKO-35 acrBD408A (strain EKO-35 acrBD408A, antibiotic alone); 0.244 µg/mL with EKO-35 (strain EKO-35, antibiotic alone); 500 µg/mL in the experiment on wild-type E. coli K-12 (strain K-12, antibiotic alone); 1.95 µg/mL in the experiment with ΔtolC-Pore (strain ΔtolC Pore, antibiotic alone); 7.81 µg/mL in the experiment on ΔtolC (strain ΔtolC, antibiotic alone); 15.6 µg/mL in [1] (strain EKO-35 acrB Pore, antibiotic alone). In addition, the “MICb Alone” value was 0.488 µg/mL in the experiment with EKO-35-Pore (strain EKO-35 Pore, antibiotic alone) and 250 µg/mL in the experiment with wild-type K-12-Pore (antibiotic alone). Also, the “MICb Combined” value with EKO-35 (strain EKO-35, antibiotic in combination with NMP) was 0.244 µg/mL; with wild-type E. coli K-12 (strain K-12, antibiotic in combination with NMP) it was 125 µg/mL; with ΔtolC-Pore (strain ΔtolC Pore, antibiotic in combination with NMP) it was 0.488 µg/mL; with ΔtolC (strain ΔtolC, antibiotic in combination with NMP), 1.95 µg/mL; in experiment [1] (strain EKO-35 acrB Pore, antibiotic in combination with NMP) it was 2 µg/mL; in experiment [2] (strain EKO-35 acrBD408A Pore, antibiotic in combination with NMP) it was 0.122 µg/mL. Further, the “MICb Combined” value in the experiment on wild-type K-12-Pore (antibiotic in combination with NMP) stood at 31.3 µg/mL. Further, the MIC in experiment [3] (strain EKO-35) was 0.122 µg/mL; in experiment [3] (strain EKO-35 pEmrE), 0.488 µg/mL; in experiment [3] (strain acrB pEmrE) it was 31.2 µg/mL; in experiment [3] (strain acrB) it was 7.81 µg/mL; in experiment [3] (strain acrD pEmrE), 1.95 µg/mL; in experiment [3] (strain acrD) it was 0.244 µg/mL. Also, the MIC in experiment [3] (strain acrEF pEmrE) stood at 7.81 µg/mL; in experiment [3] (strain acrEF), 1.95 µg/mL; in [3] (strain mdtEF pEmrE) it was 3.91 µg/mL; in experiment [3] (strain mdtEF), 0.977 µg/mL. The “Fold Change from EKO-35” value in experiment [3] (strain EKO-35 pEmrE) is on record as 4; in [3] (strain acrB pEmrE), 256; in [3] (strain acrB), 64; in experiment [3] (strain acrD pEmrE) it was 16; in [3] (strain acrD), 2; in experiment [3] (strain acrEF pEmrE), 64. The entries for the “Fold Change from EKO-35” value in experiment [3] (strain acrEF), in experiment [3] (strain mdtEF pEmrE) and in experiment [3] (strain mdtEF) were 16, 32 and 8, respectively.
